The species entered for the series is Rattus norvegicus. The conditions noted are these: in vivo, 6 h.

As for `O=S(=O)(c1ccccn1)c1ccc(Cl)cc1S(=O)(=O)N1CCC2(CC1)CC2NS(=O)(=O)C(F)(F)F` (stereo not drawn), the AUC is 6.1 µM.
With `O=S(=O)(c1ccccn1)c1ccc(OC(F)(F)F)cc1S(=O)(=O)N1CCC2(CC1)CC2NS(=O)(=O)C(F)(F)F` (stereo not drawn), the AUC came to 7.3 µM.
Next, `O=S(=O)(c1ccccc1F)c1cc(Cl)ccc1S(=O)(=O)N1CCC(CNS(=O)(=O)C(F)(F)F)CC1`: 1.9 µM.

The values above are taken from ChEMBL document CHEMBL1153236, “Non-aromatic A-ring replacement in the triaryl bis-sulfone CB2 receptor inhibitors” (Bioorg Med Chem Lett, 2010).
